What is called IC50 is the concentration that inhibits the measured activity by half. Read a low IC50 as greater potency.

The target of one assay is T1, human plasma kallikrein (Homo sapiens, UniProt P03952).
T1 construct: purchased Kordia
Kind of assay: Determination of the plasma kallikrein activity (fluorogenic peptide substrate, AMC cleavage). The format is biochemical. As to conditions: plasma kallikrein from Kordia 0.6 nM; substrate H-Pro-Phe-Arg-AMC 10 μM; 30 min at 22° C.; in some cases averages from multiple determinations. Here is the method:
To determine the plasma kallikrein inhibition of the substances according to the invention, a biochemical test system is used which utilizes the reaction of a peptidic plasma kallikrein substrate to determine the enzymatic activity of human plasma kallikrein. Here, plasma kallikrein cleaves from the peptic plasma kallikrein substrate the C-terminal aminomethylcoumarin (AMC), the fluorescence of which is measured. The determinations are conducted in microtitre plates.
Test substances are dissolved in dimethyl sulfoxide and serially diluted in dimethyl sulfoxide (3000 μM to 0.0078 μM; resulting final concentrations in the test: 50 μM to 0.00013 μM). 1 μl of the diluted substance solutions is placed into each of the wells of white microtitre plates from Greiner (384 wells). 20 μl of assay buffer (50 mM Tris/HCl pH 7.4; 100 mM sodium chloride solution; 5 mM calcium chloride solution; 0.1% of bovine serum albumin) and 20 μl of plasma kallikrein from Kordia (0.6 nM in assay buffer) are then added successively. After 15 min of incubation, the enzyme reaction is started by addition of 20 μl of the substrate H-Pro-Phe-Arg-AMC dissolved in assay buffer (10 μM in assay buffer) from Bachem, the mixture is incubated at room temperature (22° C.) for 30 min and fluorescence is then measured (excitation: 360 nm, emission: 460 nm). The measured emissions of the test batches with test substance are compared to those of control batches without test substance (only dimethyl sulfoxide instead of test substance in dimethyl sulfoxide), and IC50 values are calculated from the concentration/activity relationships. Activity data from this test are given in Table B below (in some cases as averages from multiple individual determinations): […]

For the next assay, the target named is T2, human factor XIa (Homo sapiens, UniProt P03951).
T2 construct: purchased Kordia
The experiment in a line: Measurement of FXIa inhibition (fluorogenic peptide substrate, AMC cleavage). The format is biochemical. To be noted: factor XIa from Kordia 0.45 nM; substrate Boc-Glu(OBzl)-Ala-Arg-AMC 10 μM; 30 min at 22° C.; in some cases averages from multiple determinations. Here is the method: The factor XIa inhibition of the substances according to the invention is determined using a biochemical test system which utilizes the reaction of a peptidic factor XIa substrate to determine the enzymatic activity of human factor XIa. Here, factor XIa cleaves from the peptic factor XIa substrate the C-terminal aminomethylcoumarin (AMC), the fluorescence of which is measured. The determinations are conducted in microtitre plates.
Test substances are dissolved in dimethyl sulfoxide and serially diluted in dimethyl sulfoxide (3000 μM to 0.0078 μM; resulting final concentrations in the test: 50 μM to 0.00013 μM). 1 μl of the diluted substance solutions is placed into each of the wells of white microtitre plates from Greiner (384 wells). 20 μl of assay buffer (50 mM of Tris/HCl pH 7.4; 100 mM of sodium chloride; 5 mM of calcium chloride; 0.1% of bovine serum albumin) and 20 μl of factor XIa from Kordia (0.45 nM in assay buffer) are then added successively. After 15 min of incubation, the enzyme reaction is started by addition of 20 μl of the factor XIa substrate Boc-Glu(OBzl)-Ala-Arg-AMC dissolved in assay buffer (10 μM in assay buffer) from Bachem, the mixture is incubated at room temperature (22° C.) for 30 min and fluorescence is then measured (excitation: 360 nm, emission: 460 nm). The measured emissions of the test batches with test substance are compared to those of control batches without test substance (only dimethyl sulfoxide instead of test substance in dimethyl sulfoxide), and IC50 values are calculated from the concentration/activity relationships. Activity data from this test are given in Table A below (in some cases as averages from multiple individual determinations): […]

T2 sequence (P03951 388-625 limits assumed): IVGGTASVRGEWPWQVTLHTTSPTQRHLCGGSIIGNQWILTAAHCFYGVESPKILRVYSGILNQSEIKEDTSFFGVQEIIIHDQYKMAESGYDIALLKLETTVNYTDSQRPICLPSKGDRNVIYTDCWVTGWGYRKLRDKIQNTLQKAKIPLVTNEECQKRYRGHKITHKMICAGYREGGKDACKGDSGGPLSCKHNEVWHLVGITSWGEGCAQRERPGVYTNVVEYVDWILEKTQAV
T2 sequence (P03951 19-387 partner limits assumed): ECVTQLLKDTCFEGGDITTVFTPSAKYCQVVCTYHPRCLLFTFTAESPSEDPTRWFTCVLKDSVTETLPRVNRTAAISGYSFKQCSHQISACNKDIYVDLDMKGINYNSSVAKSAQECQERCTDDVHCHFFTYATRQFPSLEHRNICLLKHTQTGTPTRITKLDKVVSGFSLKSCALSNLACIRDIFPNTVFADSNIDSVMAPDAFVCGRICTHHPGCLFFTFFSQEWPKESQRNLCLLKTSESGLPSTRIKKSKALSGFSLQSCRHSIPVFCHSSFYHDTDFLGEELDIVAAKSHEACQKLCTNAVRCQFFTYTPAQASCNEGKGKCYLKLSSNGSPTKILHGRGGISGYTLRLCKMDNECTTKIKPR
T1 sequence (P03952 391-638 limits assumed): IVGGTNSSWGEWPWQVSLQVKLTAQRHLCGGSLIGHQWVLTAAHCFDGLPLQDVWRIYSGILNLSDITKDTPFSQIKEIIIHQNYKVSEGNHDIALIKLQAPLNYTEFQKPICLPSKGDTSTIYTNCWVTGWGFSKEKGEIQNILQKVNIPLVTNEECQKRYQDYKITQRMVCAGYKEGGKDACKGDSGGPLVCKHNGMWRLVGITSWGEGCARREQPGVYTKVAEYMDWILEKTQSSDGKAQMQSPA
T1 sequence (P03952 20-390 partner limits assumed): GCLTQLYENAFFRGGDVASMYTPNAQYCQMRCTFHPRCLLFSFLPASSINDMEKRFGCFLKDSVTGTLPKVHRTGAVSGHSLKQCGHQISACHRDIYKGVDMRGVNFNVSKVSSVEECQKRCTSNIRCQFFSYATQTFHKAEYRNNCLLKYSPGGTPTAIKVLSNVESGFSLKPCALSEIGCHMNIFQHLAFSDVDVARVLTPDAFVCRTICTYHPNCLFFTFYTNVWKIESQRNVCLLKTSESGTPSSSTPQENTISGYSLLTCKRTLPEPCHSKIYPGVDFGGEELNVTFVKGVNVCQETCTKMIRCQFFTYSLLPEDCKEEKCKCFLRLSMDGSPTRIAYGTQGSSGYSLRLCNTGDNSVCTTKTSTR

Turning to `COc1cn(C(CCOC(C)(C)C)C(=O)Nc2ccc3nn(C)cc3c2)c(=O)cc1-c1cc(Cl)ccc1OCC(F)F` (racemic) [Example 28, 4-tert-Butoxy-2-{4-[5-chloro-2-(2,2-difluoroethoxy)phenyl]-5-methoxy-2-oxopyridin-1(2H)-yl}-N-(2-methyl-2H-indazol-5-yl)butanamide], the IC50 on human plasma kallikrein was 0.12 µM; against human factor XIa, 0.028 µM.

Regarding `COc1cn(C(CCOC(C)C)C(=O)Nc2ccc(C(=O)O)cc2)c(=O)cc1-c1cc(Cl)ccc1OCC(F)(F)F` (racemic) [Example 34, 4-[(2-{4-[5-Chloro-2-(2,2,2-trifluoroethoxy)phenyl]-5-methoxy-2-oxopyridin-1(2H)-yl}-4-isopropoxybutanoyl)amino]benzoic acid], the IC50 against human plasma kallikrein was 0.045 µM; on human factor XIa, 0.0019 µM.

`COc1cn(C(C[C@H](C)OC)C(=O)Nc2ccc(C(=O)O)cc2)c(=O)cc1-c1cc(Cl)ccc1OCC(F)(F)F` (mixture of isomers) [Example 35, 4-{[(4S)-2-{4-[5-Chloro-2-(2,2,2-trifluoroethoxy)phenyl]-5-methoxy-2-oxopyridin-1(2H)-yl}-4-methoxypentanoyl]amino}benzoic acid]: the figures for the IC50 at human plasma kallikrein and at human factor XIa were 0.13 µM and 0.0024 µM, respectively.

For `CNC(=O)c1ccc(NC(=O)C(C[C@H](C)OC)n2cc(OC)c(-c3cc(Cl)ccc3OCC(F)(F)F)cc2=O)cn1` (mixture of isomers) [Example 36, 5-{[(4S)-2-{4-[5-Chloro-2-(2,2,2-trifluoroethoxy)phenyl]-5-methoxy-2-oxopyridin-1(2H)-yl}-4-methoxypentanoyl]amino}-N-methylpyridine-2-carboxamide], the figures for the IC50 against human plasma kallikrein and against human factor XIa were 0.07 µM and 0.0062 µM, respectively.

In the case of `COc1cn(C(C[C@H](C)OC)C(=O)Nc2ccc3nn(C)cc3c2)c(=O)cc1-c1cc(Cl)ccc1OCC(F)(F)F` (mixture of isomers) [Example 37, (4S)-2-{4-[5-Chloro-2-(2,2,2-trifluoroethoxy)phenyl]-5-methoxy-2-oxopyridin-1(2H)-yl}-4-methoxy-N-(2-methyl-2H-indazol-5-yl)pentanamide], the IC50 against human plasma kallikrein turned out to be 0.072 µM; on human factor XIa it was 0.0079 µM.

Turning to `COc1cn(C(CCOC(F)(F)F)C(=O)Nc2ccc3nn(C)cc3c2)c(=O)cc1-c1cc(Cl)ccc1OCC(F)(F)F` (racemic) [Example 38, 2-{4-[5-Chloro-2-(2,2,2-trifluoroethoxy)phenyl]-5-methoxy-2-oxopyridin-1(2H)-yl}-N-(2-methyl-2H-indazol-5-yl)-4-(trifluoromethoxy)butanamide], the IC50 on human plasma kallikrein was determined as 0.093 µM; against human factor XIa, 0.013 µM.

As to `COc1cn(C(CCOC(C)C)C(=O)Nc2ccc3nn(C)cc3c2)c(=O)cc1-c1cc(Cl)ccc1OCC(F)(F)F` (racemic) [Example 39, 2-{4-[5-Chloro-2-(2,2,2-trifluoroethoxy)phenyl]-5-methoxy-2-oxopyridin-1(2H)-yl}-4-isopropoxy-N-(2-methyl-2H-indazol-5-yl)butanamide], the IC50 is 0.056 µM on human plasma kallikrein and 0.016 µM against human factor XIa.

As for `COc1cn(C(C[C@H](C)OC)C(=O)Nc2ccc(C(N)=O)c(F)c2)c(=O)cc1-c1cc(Cl)ccc1OCC(F)(F)F` (mixture of isomers) [Example 40, 4-{[(4S)-2-{4-[5-Chloro-2-(2,2,2-trifluoroethoxy)phenyl]-5-methoxy-2-oxopyridin-1(2H)-yl}-4-methoxypentanoyl]amino}-2-fluorobenzamide], the IC50 at human plasma kallikrein was 0.23 µM; on human factor XIa, 0.019 µM.

As for `COc1cn(C(CCOC(C)C)C(=O)Nc2ccc(C(N)=O)c(F)c2)c(=O)cc1-c1cc(Cl)ccc1OCC(F)(F)F` (racemic) [Example 41, 4-[(2-{4-[5-Chloro-2-(2,2,2-trifluoroethoxy)phenyl]-5-methoxy-2-oxopyridin-1(2H)-yl}-4-isopropoxybutanoyl)amino]-2-fluorobenzamide], the IC50 stood at 0.13 µM on human plasma kallikrein and 0.025 µM against human factor XIa.

On to `COc1cn(C(CCOC(F)(F)F)C(=O)Nc2ccc(C(N)=O)c(F)c2)c(=O)cc1-c1cc(Cl)ccc1OCC(F)(F)F` (racemic) [Example 42, 4-{[2-{4-[5-Chloro-2-(2,2,2-trifluoroethoxy)phenyl]-5-methoxy-2-oxopyridin-1(2H)-yl}-4-(trifluoromethoxy)butanoyl]amino}-2-fluorobenzamide], for which the half-inhibitory concentration (IC50) against human plasma kallikrein is 0.19 µM; at human factor XIa, 0.029 µM.

`COc1cn(C(CCOC2(C)CCC2)C(=O)Nc2ccc(C(=O)O)cc2)c(=O)cc1-c1cc(Cl)ccc1OCC(F)(F)F` (racemic) [Example 55, 4-[(2-{4-[5-Chloro-2-(2,2,2-trifluoroethoxy)phenyl]-5-methoxy-2-oxopyridin-1(2H)-yl}-4-[(1-methylcyclobutyl)oxy]butanoyl)amino]benzoic acid]: the IC50 amounted to 0.032 µM against human plasma kallikrein and 0.0018 µM at human factor XIa.

For `CNC(=O)c1ccc(NC(=O)C(CCOC2(C)CCC2)n2cc(OC)c(-c3cc(Cl)ccc3OCC(F)(F)F)cc2=O)cn1` (racemic) [Example 57, 5-[[2-[4-[5-Chloro-2-(2,2,2-trifluoroethoxy)phenyl]-5-methoxy-2-oxo-1-pyridyl]-4-(1-methylcyclobutoxy)butanoyl]amino]-N-methylpyridine-2-carboxamide], the IC50 against human plasma kallikrein came out at 0.054 µM; at human factor XIa, 0.014 µM.

With `COc1cn(C(CCOC2(C)CCC2)C(=O)Nc2ccc3nn(C)cc3c2)c(=O)cc1-c1cc(Cl)ccc1OCC(F)(F)F` (racemic) [Example 58, 2-[4-[5-Chloro-2-(2,2,2-trifluoroethoxy)phenyl]-5-methoxy-2-oxo-1-pyridyl]-4-(1-methylcyclobutoxy)-N-(2-methylindazol-5-yl)butanamide], the figures for the IC50 at human plasma kallikrein and against human factor XIa were 0.057 µM and 0.014 µM, respectively.

Regarding `COc1cn(C(CCOC2(C)CCC2)C(=O)Nc2ccc(C(N)=O)c(F)c2)c(=O)cc1-c1cc(Cl)ccc1OCC(F)(F)F` (racemic) [Example 59, 4-[[2-[4-[5-Chloro-2-(2,2,2-trifluoroethoxy)phenyl]-5-methoxy-2-oxo-1-pyridyl]-4-(1-methylcyclobutoxy)butanoyl]amino]-2-fluorobenzamide], the figures for the IC50 against human plasma kallikrein and on human factor XIa were 0.11 µM and 0.014 µM, respectively.

Regarding `COc1cn(C(CCOC2(C)CCC2)C(=O)Nc2ccc(C(N)=O)nc2)c(=O)cc1-c1cc(Cl)ccc1OCC(F)(F)F` (racemic) [Example 60, 5-[[2-[4-[5-Chloro-2-(2,2,2-trifluoroethoxy)phenyl]-5-methoxy-2-oxo-1-pyridyl]-4-(1-methylcyclobutoxy)butanoyl]amino]pyridine-2-carboxamide], the IC50 at human plasma kallikrein turned out to be 0.084 µM; at human factor XIa, 0.017 µM.

Take `CCNC(=O)c1ccc(NC(=O)C(CCOC2(C)CCC2)n2cc(OC)c(-c3cc(Cl)ccc3OCC(F)(F)F)cc2=O)cn1` (racemic) [Example 61, 5-[[2-[4-[5-Chloro-2-(2,2,2-trifluoroethoxy)phenyl]-5-methoxy-2-oxo-1-pyridyl]-4-(1-methylcyclobutoxy)butanoyl]amino]-N-ethylpyridine-2-carboxamide]: the IC50 against human plasma kallikrein amounted to 0.15 µM; against human factor XIa, 0.043 µM.

On to `CCCC(C(=O)Nc1ccc2nccnc2c1)n1cc(OC)c(-c2cc(Cl)ccc2OCC(F)(F)F)cc1=O` (racemic) [Example 64, N-(Quinoxalin-6-yl)-2-{4-[5-chloro-2-(2,2,2-trifluoroethoxy)phenyl]-5-methoxy-2-oxopyridin-1(2H)-yl}pentanamide], for which the IC50 against human plasma kallikrein was 0.059 µM; on human factor XIa, 0.036 µM.

For `CCCC(C(=O)Nc1ccc2nn(C)cc2c1)n1cc(OC)c(-c2cc(Cl)ccc2OCC(F)(F)F)cc1=O` (racemic) [Example 65, 2-{4-[5-Chloro-2-(2,2,2-trifluoroethoxy)phenyl]-5-methoxy-2-oxopyridin-1(2H)-yl}-N-(2-methyl-2H-indazol-5-yl)pentanamide], the IC50 against human plasma kallikrein is 0.14 µM; on human factor XIa it was 0.04 µM.

Source of the values: patent publication US20180250280A1 (BAYER PHARMA AKTIENGESELLSCHAFT, priority 2015, published 2018).
